The results in this text go back to US5571816A, “Pyrimidines” (Hoechst Aktiengesellschaft, priority 1992, dated 1996).

Where a name gives a salt, the structure may show the parent alone. Read-outs that look alike come from different tables or passages of the source.

Data set [1] in a line: Solubility in water of salts (and free bases). Format: physicochemical. The note with it: for solubility: water.
The subject of data set [2] is serum lipoproteins. The data set is described as follows: Effect on serum lipoproteins of normolipemic male rats in a subchronic experiment. As to conditions: Rattus norvegicus, po, by stomach tube, 7 administrations; for change in vivo at 3 mg/kg: 3 mg/kg/day; for change in vivo at 10 mg/kg: 10 mg/kg/day; for change in vivo at 30 mg/kg: 30 mg/kg/day. The format is in vivo. As for the experimental part:
3. In vivo, the increased LDL receptor activity in experimental animals is reflected by reduction in the lipoprotein fractions which can be metabolized by the LDL receptor (apoB/E receptor), i.e. a reduction in the LDL and VLDL levels is observed. The following test was carried out:
Effect on serum lipoproteins of normolipemic male rats in a subchronic experiment
Groups of in each case 10 male rats of the HOE: WISKf (SPF 71) strain with an initial weight above 180 g received once a day (in the morning) the test product or the comparison product in 1% aqueous ®Tylose MH 300 solution by stomach tube (0.5 ml/100 g of body weight); the control group in each case received only the vehicle. The last (7th) administration took place 24 hours before removal of blood and sacrifice. There was free access to food and water during the test. The food was withdrawn 24 hours before the removal of blood.
The serum from all 10 rats in a group was pooled for the analysis of the serum lipoproteins. The serum lipoproteins were separated with a preparative ultracentrifuge (KONTRON TGA 65, Rotor BECKMAN 50.4 Ti).
The following conditions specified by Koga, S., Horwitz, D. L., and Scanu, A. M., Journal of Lipid Research 10, 577 (1969) and Havel, R. J., Eder, H. A., and Bragdon, H. H., J. Clin. Invest. 34, 1345 (1955) were used to separate VLDL and LDL: 1. VLDL: Density<1.006, 40,000 rpm for 16 hours 2. LDL: Density 1.006-1.04, 40,000 rmp for 16 hours
Test kits from BOEHRINGER/Mannheim were used for the enzymatic determination of cholesterol and triglycerides in the separated lipoprotein fractions (cf. Siedel, J., Schlumberger, H., Klose, S., Ziegenhorn, J. and Wahlefeld, A. W., J. Clin. Chem. Clin. Biochem. 19, 838 (1981) and Wahlefeld, A. W., in: H. O. Bergmeier: Methoden der enzymatischen Analyse (Methods of Enzymatic Analysis), 2nd edition, Volume II, Verlag Chemie 1974, page 1878). The proteins were determined by the method of Lowry (Lowry, O. H., Roseborough, N. H., Farr, A. L. and Randell, R. J., J. Biol. Chem. 193, 265 (1951)).
Clofibrate was used as comparison product.

Where [3] appears, read: Table 2, salts of compounds I, temp. by No. [°C]: 1 25.5, 2 23.0, 3 22.4, 4 22.4, 5 22.0, 6 25.0, 7 25.5, 8 25.5, 9 25.5, 10 23.5, 11 23.5, 12 25.0, 13 24.0, 14 23.0, 15 22.0, 16 24.5, 17 22.5, 18 22.0.
Where [4] appears, read: Table 2, salts of compounds I, temp. by No. [°C]: 1 25.5, 2 23.0, 3 22.4, 4 22.4, 5 22.0, 6 25.0, 7 25.5, 8 25.5, 9 25.5, 10 23.5, 11 23.5, 12 25.0, 13 24.0, 14 23.0, 15 22.0, 16 24.5, 17 22.5, 18 22.0, read-out: Solubility in water, Concentration in % by wt.
The mark [5] stands for this setting: read-out: Serum LDL cholesterol, % change from control at end of treatment.
[6] abbreviates: read-out: Serum LDL protein, % change from control at end of treatment.
[7] abbreviates: read-out: Serum VLDL cholesterol, % change from control at end of treatment.
Where [8] appears, read: read-out: Serum VLDL protein, % change from control at end of treatment.
Where [9] appears, read: read-out: Serum VLDL triglycerides, % change from control at end of treatment.
Setting [10] is: Table 1, N-H analogs, temp. by No. [°C]: 1 25.0, 2 23.0, 3 26.2, 4 25.1, 5 25.2, 6 24.1, 7 24.5, 8 24.2, 9 24.2, 10 25.7, 11 25.8, read-out: Solubility in water, Concentration in % by wt.
Setting [11] is: Table 1, N-H analogs, temp. by No. [°C]: 1 25.0, 2 23.0, 3 26.2, 4 25.1, 5 25.2, 6 24.1, 7 24.5, 8 24.2, 9 24.2, 10 25.7, 11 25.8, read-out: Solubility in water, Molarity × 10^-3.
Where [12] appears, read: Table 1, N-H analogs, temp. by No. [°C]: 1 25.0, 2 23.0, 3 26.2, 4 25.1, 5 25.2, 6 24.1, 7 24.5, 8 24.2, 9 24.2, 10 25.7, 11 25.8.

Take `CN(C(=O)c1cnc(N2CC(C)(C)NC2=O)nc1N)c1cc(C(F)(F)F)ccc1F` [Example 28]: the “1 part by mass dissolves in ... parts by H2O” value (“1 part … by H2O” for short) in data set [1] (setting [3]) came out at 72.7 parts by H2 O. Further, the solubility in data set [1] (setting [4]) was determined as 13600 µg/mL. In addition, the change in vivo at 3 mg/kg in data set [2] (setting [5]) was 1%; in data set [2] (setting [6]), -26%; in data set [2] (setting [7]), -2%; in data set [2] (setting [8]) it was -29%. For the same compound, the change in vivo at 10 mg/kg in data set [2] (setting [5]) is -33%; in data set [2] (setting [6]), -68%; in data set [2] (setting [7]), -74%; in data set [2] (setting [8]) it was 41%; in data set [2] (setting [9]), 46%. In addition, the change in vivo at 30 mg/kg was -75% in data set [2] (setting [5]); -62% in data set [2] (setting [6]); -79% in data set [2] (setting [7]); -49% in data set [2] (setting [8]); -56% in data set [2] (setting [9]).
With `CC1(C)CN(c2ncc(C(=O)N(CC3CC3)c3cc(C(F)(F)F)ccc3F)c(N)n2)C(=O)N1` [Example 61, 4-amino-2-(4,4-dimethyl-2-oxo-1-imidazolidinyl)pyrimidine-5-carboxylic acid N-cyclopropylmethyl-N-(2-fluoro-5-trifluoromethylphenyl)amide], the “1 part … by H2O” value in data set [1] (setting [3]) stood at 65.8 parts by H2 O. Also, the solubility in data set [1] (setting [4]) came to 15000 µg/mL.
On the same counts, the results for `C=CC1CN(c2ncc(C(=O)N(C)c3cccc(C(F)(F)F)c3)c(N)n2)C(=O)N1` (stereo not drawn) [Example 72, 4-amino-2-(4-vinyl-2-oxo-1-imidazolidinyl)pyrimidine-5-carboxylic acid N-methyl-N-(3-trifluoromethylphenyl)amide hydrochloride] are less than 9 parts by H2 O and more than 100000 µg/mL.
`CC(C)CN(C(=O)c1cnc(N2CC(C)NC2=O)nc1N)c1cccc(C(F)(F)F)c1` (stereo not drawn) [Example 114]: in data set [1] (setting [3]), the “1 part … by H2O” value is on record as 24.7 parts by H2 O. Besides, in data set [1] (setting [4]), the solubility is 38900 µg/mL.
Consider `CC1(C)CN(c2ncc(C(=O)Nc3cccc(C(F)(F)F)c3)c(N)n2)C(=O)N1` [No. 1 (Table 1), hydrochloride of 4-amino-2-(4,4-dimethylimidazolidin-2-on-1-yl)pyrimidine-5-carboxylic acid N-(3-trifluoromethylphenyl)amide, reference compound], for which the solubility in data set [1] (23° C., read-out: 1 part by mass dissolves in parts of water (converted)) is 400 µg/mL; in data set [1] (23° C., read-out: solution that can be prepared in water) it was 0.93 mM; in data set [1] (setting [10]) it was 400 µg/mL; in data set [1] (setting [11]) it was 0.93 mM.
Take `CC1(C)CN(c2ncc(C(=O)Nc3cccc(C(F)(F)F)c3)c(N)n2)C(=O)N1` [No. 2 (Table 1), reference compound]: the “Solubility in water, Molarity × 10^-3” value in data set [1] (setting [12]) was determined as 0.90 Molarity × 10^-3.
With `CC1(C)CN(c2ncc(C(=O)Nc3ccc(F)c(C(F)(F)F)c3)c(N)n2)C(=O)N1` [No. 3 (Table 1), reference compound], the “1 part by mass dissolves in ... parts of H2O” value (from here on “1 part … of H2O”) in data set [1] (setting [12]) was 703 parts of H2 O. Moreover, the solubility in data set [1] (setting [10]) came out at 1400 µg/mL; in data set [1] (setting [11]), 3.17 mM.
For the compound `CC1(C)CN(c2ncc(C(=O)Nc3cc(C(F)(F)F)ccc3Cl)c(N)n2)C(=O)N1` [No. 4 (Table 1), reference compound], the “1 part … of H2O” value in data set [1] (setting [12]) is 217 parts of H2 O. The solubility in data set [1] (setting [10]) was 4600 µg/mL; in data set [1] (setting [11]), 9.91 mM.
Consider `CC1(C)CN(c2ncc(C(=O)Nc3ccc(Cl)c(C(F)(F)F)c3)c(N)n2)C(=O)N1` [No. 5 (Table 1), reference compound], for which the solubility in data set [1] (setting [10]) was found to be 1000 µg/mL; in data set [1] (setting [11]), 2.03 mM.
On to `COc1ccc(C(F)(F)F)cc1NC(=O)c1cnc(N2CC(C)(C)NC2=O)nc1N` [No. 6 (Table 1), reference compound], for which the “1 part … of H2O” value in data set [1] (setting [12]) is given as 75 parts of H2 O. Besides, the “solubility in water, in words” value in data set [1] (categories of the Deutsches Arzneibuch) is “sparingly soluble”. The values for the solubility in data set [1] (setting [10]) and in data set [1] (setting [11]) were 13200 µg/mL and 28.9 mM, respectively.
On to `COc1ccc(NC(=O)c2cnc(N3CC(C)(C)NC3=O)nc2N)cc1C(F)(F)F` [No. 7 (Table 1), reference compound], for which the “1 part … of H2O” value in data set [1] (setting [12]) is reported as 554 parts of H2 O. Also, the solubility in data set [1] (setting [10]) was found to be 1800 µg/mL; in data set [1] (setting [11]), 3.92 mM.
On to `CCCC1(C)CN(c2ncc(C(=O)Nc3cc(C(F)(F)F)ccc3Cl)c(N)n2)C(=O)N1` (stereo not drawn) [No. 8 (Table 1), reference compound], for which, in data set [1] (setting [12]), the “1 part … of H2O” value is 781 parts of H2 O. In addition, the solubility came to 1300 µg/mL in data set [1] (setting [10]) and 2.59 mM in data set [1] (setting [11]).
Turning to `CC1(C)CN(c2ncc(C(=O)N(c3cccc(C(F)(F)F)c3)C3CCCC3)c(N)n2)C(=O)N1` [No. 8 (Table 2)], the “1 part … by H2O” value in data set [1] (setting [3]) is reported as 60.6 parts by H2 O. Besides, the solubility in data set [1] (setting [4]) was found to be 16200 µg/mL.
For `CCCC1(C)CN(c2ncc(C(=O)Nc3ccc(Cl)c(C(F)(F)F)c3)c(N)n2)C(=O)N1` (stereo not drawn) [No. 9 (Table 1), reference compound], the solubility amounted to 1300 µg/mL in data set [1] (setting [10]) and 2.8 mM in data set [1] (setting [11]).
Regarding `CC1(C)CN(c2ncc(C(=O)N(CC3CC3)c3cccc(C(F)(F)F)c3)c(N)n2)C(=O)N1` [No. 9 (Table 2)], the “1 part … by H2O” value in data set [1] (setting [3]) stood at 13.1 parts by H2 O. The solubility in data set [1] (setting [4]) was found to be 71100 µg/mL.
Turning to `CCCC1(C)CN(c2ncc(C(=O)Nc3cccc(C(F)(F)F)c3)c(N)n2)C(=O)N1` (stereo not drawn) [No. 10 (Table 1), reference compound], the “1 part … of H2O” value in data set [1] (setting [12]) is reported as 255 parts of H2 O. The solubility in data set [1] (setting [10]) is 3900 µg/mL; in data set [1] (setting [11]), 8.54 mM.
On to `CC1NC(=O)N(c2ncc(C(=O)Nc3cccc(C(F)(F)F)c3)c(N)n2)C1C` (stereo not drawn) [No. 11 (Table 1), reference compound], for which, in data set [1] (setting [12]), the “1 part … of H2O” value was 277 parts of H2 O. Besides, the solubility was 3600 µg/mL in data set [1] (setting [10]) and 8.38 mM in data set [1] (setting [11]).
